Experiments:
[1] = system: K. pneumoniae strain 13882; test: Selective lysis test, BacUni QuickFISH staining (Example 3); assay type: cell-based; details: FIG. 2; K. pneumoniae 13882; meropenem 10 μg/ml, 30 min, SDS lysis
From the text: (§1) An alternative to the spectrophotometer-based measurement of changes in turbidity for measuring cell lysis following treatment with the cell lysis conditions in Examples 1 and 2 is to stain samples using a stain that distinguishes between intact cells and lysed cells. In this example staining with BacUni QuickFISH™ was used to identify intact (i.e., non-lysed) cells. BacUN1 is a universal bacteria PNA probe that binds to an rRNA sequence present in most Gram-positive and Gram-negative bacteria. The PNA probe binds to universal rRNA in intact bacterial cells and the entire cell will appears green with fluorescent microscopy. If the bacterial cell had been lysed then the rRNA target would have been released from the bacterial cell and even of somewhat labeled it would not appear as a fluorescent bacterial cell.
(§2) An isolated colony from an overnight Tryptocase Soy Agar (TSA) plate of each bacteria was suspended in 1 ml Tryptocase Soy Broth (TSB) in a 5 ml BD polystyrene round bottom tube. TSB cultures were incubated at 37° C. overnight. Ten μl of overnight culture was inoculated into 1 ml TSB and incubated shaking at 37° C. for three hours. Two 250 μl aliquots of each log-phase culture was transferred to two 2 ml Eppendorf microcentrifuge tubes. One tube contained 500 μl of Normal Saline (BD); the second tube contained 500 μl Normal Saline with meropenem at 10 μg/ml. Tubes were inverted and then incubated at 37° C. stagnant for thirty minutes. Then […] (0.5% SDS in PSB) was added to each tube and the tubes were vortexed for 5 seconds. Post incubation, the entire culture was filtered through a 1 uM polycarbonate 18 mm filter. The filter was transferred to a plain glass slide and placed on a 55° C. heat block. Then 2 drops of 100% methanol were added to adhere the filter to the slide. Then 30 μl of BacUni QuickFISH™ hybridization buffer was added to the slide and a 50×22 mm coverslip was applied. The slide was then incubated at 55° C. for 15 minutes. The slide was viewed on fluorescence microscope using 60× oil immersion on Dual TxR/FITC. Images were taken with a 1 second exposure.

[2] = system: E. coli strain 35218; test: as above; assay type: cell-based; details: FIG. 3; E. coli 35218; meropenem 10 μg/ml, 30 min, SDS lysis
From the text: as §1, §2

[3] = system: K. pneumoniae strain 3456; test: as above; assay type: cell-based; details: FIG. 1; K. pneumoniae 3456; meropenem 10 μg/ml, 30 min, SDS lysis
From the text: as §1, §2

[4] = system: K. pneumoniae strain BAA1705 KPC+; test: as above; assay type: cell-based; details: FIG. 5, meropenem 10 μg/ml, 30 min, SDS lysis
From the text: as §1, §2

[5] = system: E. coli strain 25922; test: as above; assay type: cell-based; details: FIG. 3; E. coli 25922; meropenem 10 μg/ml, 30 min, SDS lysis
From the text: as §1, §2

[6] = system: K. pneumoniae strain BAA2146 NDM+; test: as above; assay type: cell-based; details: FIG. 5, meropenem 10 μg/ml, 30 min, SDS lysis
From the text: as §1, §2

[7] = system: E. coli strain BAA-197 ESβL; test: as above; assay type: cell-based; details: FIG. 1; E. coli BAA-197 ESβL; meropenem 10 μg/ml, 30 min, SDS lysis
From the text: as §1, §2

[8] = system: E. coli strain 23858; test: as above; assay type: cell-based; details: FIG. 2; E. coli 23858; meropenem 10 μg/ml, 30 min, SDS lysis
From the text: as §1, §2

[9] = system: K. pneumo KPC 24605; test: Selective lysis test, OD600 turbidity (Example 1); assay type: cell-based, Klebsiella pneumoniae
Experimental: (§3) An isolated colony from an overnight Tryptocase Soy Agar (TSA) plate of each bacterial strain was suspended in 1 ml Tryptocasc Soy Broth (TSB) in a 5 ml BD polystyrene round bottom tube. TSB cultures were incubated shaking at 37° C. overnight. Ten of the overnight culture was inoculated into lml TSB and incubated shaking at 37° C. for three hours. Two […] aliquots of each log-phase culture were then transferred to two 2 ml Eppendorf microcentrifuge tubes. One tube contained 5000 of Normal Saline (BD); the second tube contained 5000 Normal Saline with meropenem at 10 μg/ml (final concentration of meropenem of 6.67 10 μg/ml). Tubes were inverted and then incubated at 37° C. stagnant for thirty minutes. Then […] of lysis buffer (0.5% SDS in PSB) (final concentration of SDS of 0.125%) was added to each tube and the tubes were vortexed for 5 seconds. Post incubation, all tubes were spun at 10000 G for 5 minutes. Supernatant was decanted and the pellet resuspended in Normal Saline. Tubes were vortexed again. OD600 was measured using Eppendorf uvettes in a spectrophotometer. The delta between the OD600 of the normal saline control and the OD600 for the test sample exposed to meropenem in normal saline was used to determine susceptibility of the bacterial strain to meropenem.
The tested resistant strains were Klebsiella pneumoniae carbapenemase (KPC)-producing bacteria (abbreviated “KPC”), KPC-producing Klebsiella oxytoca (abbreviated “KPC K. oxy), and Klebsiella pneumoniae producing Metallo-beta-lactamase-1 (NDM-1) (abbreviated “NDM”).

[10] = system: E. coli ESBL 790; test: Selective lysis test, OD600 turbidity (Example 1); assay type: cell-based, Escherichia coli
Experimental: as §3

[11] = system: E. coli 35218; test: Selective lysis test, OD600 turbidity (Example 1); assay type: cell-based, Escherichia coli
Experimental: as §3

[12] = system: E. coli 25922; test: Selective lysis test, OD600 turbidity (Example 1); assay type: cell-based, Escherichia coli
Experimental: as §3

[13] = system: E. coli ESBL Baa197; test: Selective lysis test, OD600 turbidity (Example 1); assay type: cell-based, Escherichia coli; details: for % Change: OD600 vs control without meropenem
Experimental: as §3

[14] = system: E. coli 23848; test: Selective lysis test, OD600 turbidity (Example 1); assay type: cell-based, Escherichia coli
Experimental: as §3

[15] = system: E. coli 51422; test: Selective lysis test, OD600 turbidity (Example 1); assay type: cell-based, Escherichia coli
Experimental: as §3

[16] = system: E. coli JM109; test: Selective lysis test, OD600 turbidity (Example 1); assay type: cell-based, Escherichia coli
Experimental: as §3

[17] = OD600 vs control without meropenem
[18] = meropenem 10 μg/ml, 30 min, SDS lysis buffer + vortex

Q: What does the source list for `C[C@@H](O)[C@H]1C(=O)N2C(C(=O)O)=C(S[C@@H]3CN[C@H](C(=O)N(C)C)C3)[C@H](C)[C@H]12` [meropenem]?
A: number of BacUni QuickFISH stained cells, treated vs not treated [1]: significant reduction in the number of stained cells; number of BacUni QuickFISH stained cells, treated vs not treated [2]: significant reduction in the number of stained cells; number of BacUni QuickFISH stained cells, treated vs not treated [3]: significant reduction in the number of stained cells; number of BacUni QuickFISH stained cells, treated vs not treated [4]: similarity in the number of stained cells; number of BacUni QuickFISH stained cells, treated vs not treated [5]: significant reduction in the number of stained cells; number of BacUni QuickFISH stained cells, treated vs not treated [6]: similarity in the number of stained cells; number of BacUni QuickFISH stained cells, treated vs not treated [7]: significant reduction in the number of stained cells; number of BacUni QuickFISH stained cells, treated vs not treated [8]: significant reduction in the number of stained cells; R or S [9]: R; % Change [9, 17]: 6%; Mero OD600 [9, 18]: 2.0363; R or S [10]: S (a percentage change of greater than about 85% indicates a strain is susceptible); % Change [10, 17]: 87%; Mero OD600 [10, 18]: 0.126; R or S [11]: S (a percentage change of greater than about 85% indicates a strain is susceptible); % Change [11, 17]: 90%; Mero OD600 [11, 18]: 0.1; R or S [12]: S (a percentage change of greater than about 85% indicates a strain is susceptible); % Change [12, 17]: 97%; Mero OD600 [12, 18]: 0.064; R or S [13]: S (a percentage change of greater than about 85% indicates a strain is susceptible); % Change [13]: 74%; % Change ([13]; listed as Mero): 74%; Mero OD600 [13, 18]: 0.236; R or S [14]: S (a percentage change of greater than about 85% indicates a strain is susceptible); % Change [14, 17]: 97%; Mero OD600 [14, 18]: 0.021; R or S [15]: S (a percentage change of greater than about 85% indicates a strain is susceptible); % Change [15, 17]: 98%; Mero OD600 [15, 18]: 0.031; R or S [16]: S (a percentage change of greater than about 85% indicates a strain is susceptible); % Change [16, 17]: 88%; Mero OD600 [16, 18]: 0.079

From patent publication US20160281125A1, “ANTIMICROBIAL COMPOUND SUSCEPTIBILITY TEST” (priority 2013, published 2016)
